Data on 24 compounds can be found in patent publication US10543212B2, “Substituted amines for treating cardiac diseases” (Cardurion Pharmaceuticals, LLC, priority 2017, dated 2020).

This experiment deals with T1, Full-length, GST-tagged, human CaMKIIδ (Homo sapiens, UniProt Q13557).
T1 construct: Full-Length, Glutathione-S-Transferase(GST)-Tagged, Human CaMKIIδ was purchased from Carna Biosciences; purchased Carna Biosciences 02-111
Put plainly: CaMKIIδ binding assay (TR-FRET with BODIPY-labeled probe ligand). In outline:
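TR-FRET probe-displacement binding: 0.5 nM GST-CaMKIIδ with 10 μg/mL calmodulin, 1 mM CaCl2, 0.21 nM Tb-anti-GST Ab and 300 nM BODIPY probe in HEPES pH 7.6 buffer. Eight-point 4-fold dilutions, 1 hr at room temperature. IC50 from logistic fit; 100% inhibition defined by 3 μM parent compound.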

Where [1] appears, read: Table 2, activity class for CaMKIIδ.
The mark [2] stands for this setting: Table 2, CaMKIIδ binding assay, activity given as class A/B/C.
Setting [3] is: CaMKIIδ binding assay, activity class per Table 2.
The mark [4] stands for this setting: CaMKIIδ binding assay, results of Table 2.

Each structure is given as a SMILES string. pIC50: −log10 of the molar value. A value given as a limit tells only on which side of the number the result lay.

T1 sequence (Q13557 1-478 isoform Q13557-12): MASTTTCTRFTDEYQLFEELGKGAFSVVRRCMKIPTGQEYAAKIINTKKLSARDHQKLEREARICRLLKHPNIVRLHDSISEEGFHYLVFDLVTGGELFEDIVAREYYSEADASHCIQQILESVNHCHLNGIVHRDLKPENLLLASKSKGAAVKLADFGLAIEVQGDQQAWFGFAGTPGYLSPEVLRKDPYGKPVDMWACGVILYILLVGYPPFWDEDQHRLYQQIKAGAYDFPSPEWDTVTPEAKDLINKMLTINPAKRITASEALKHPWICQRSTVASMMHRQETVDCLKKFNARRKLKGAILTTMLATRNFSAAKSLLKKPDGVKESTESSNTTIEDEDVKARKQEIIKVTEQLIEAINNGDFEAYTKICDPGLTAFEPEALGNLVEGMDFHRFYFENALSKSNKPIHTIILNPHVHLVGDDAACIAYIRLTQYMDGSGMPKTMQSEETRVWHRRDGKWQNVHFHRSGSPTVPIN

Under setting [1], `COc1cc(N2CCOC(CN(C)C)C2)ccc1Nc1ncc(-c2ccc(Cl)c(O[C@@H](C)Cn3cnnn3)c2)cn1` (stereo partly drawn) [Example 688, 5-(3-(((S)-1-(1H-tetrazol-1-yl)propan-2-yl)oxy)-4-chlorophenyl)-N-(4-(2-((dimethylamino)methyl)morpholino)-2-methoxyphenyl)pyrimidin-2-amine] showed a pIC50 of over 8.00.

As to `C[C@@H](Cn1cnnn1)Oc1cc(-c2cnc(Nc3cn([C@H]4CC[C@H](N5CC(C)(O)C5)CC4)nc3OCC(F)(F)F)nc2)ccc1Cl` [Example 802, 1-(trans-4-(4-((5-(3-(((S)-1-(1H-tetrazol-1-yl)propan-2-yl)oxy)-4-chlorophenyl)pyrimidin-2-yl)amino)-3-(2,2,2-trifluoroethoxy)-1H-pyrazol-1-yl)cyclohexyl)-3-methylazetidin-3-ol], under setting [2], the pIC50 is over 8.00.

In turn, `C[C@@H](Cn1cnnn1)Oc1cc(-c2cnc(Nc3cn(C4CCC(CC(N)=O)CC4)nc3C(F)(F)F)nc2)ccc1Cl` (stereo partly drawn) [Example 852, (S)-2-(4-(4-((5-(3-((1-(1H-tetrazol-1-yl)propan-2-yl)oxy)-4-chlorophenyl)pyrimidin-2-yl)amino)-3-(trifluoromethyl)-1H-pyrazol-1-yl)cyclohexyl)acetamide] had a pIC50 under setting [2] of at most 7.00.

In turn, `C[C@@H](Cn1cnnn1)Oc1cc(-c2cnc(Nc3cn(C4CC5(C4)CN(Cc4ncccn4)C5)nc3OCC(F)(F)F)nc2)ccc1Cl` [Example 984, (S)-5-(3-((1-(1H-tetrazol-1-yl)propan-2-yl)oxy)-4-chlorophenyl)-N-(1-(2-(pyrimidin-2-ylmethyl)-2-azaspiro[3.3]heptan-6-yl)-3-(2,2,2-trifluoroethoxy)-1H-pyrazol-4-yl)pyrimidin-2-amine] had a pIC50 under setting [3] of over 8.00.

Consider `C[C@@H](Cn1cnnn1)Oc1cc(-c2cnc(Nc3cn([C@H]4CC[C@@H](N5CCOCC5)CC4)nc3OCC(F)(F)F)nc2)ccc1Cl` [Example 780, 5-(3-(((S)-1-(1H-tetrazol-1-yl)propan-2-yl)oxy)-4-chlorophenyl)-N-(1-(cis-4-morpholinocyclohexyl)-3-(2,2,2-trifluoroethoxy)-1H-pyrazol-4-yl)pyrimidin-2-amine], for which the pIC50 under setting [2] was over 8.00.

Take `C[C@@H](CO)Cn1cc(Nc2ncc(-c3ccc(Cl)c(O[C@@H](C)Cn4cnnn4)c3)cn2)c(OCC(F)(F)F)n1` [Example 784, (R)-3-(4-((5-(3-(((S)-1-(1H-tetrazol-1-yl)propan-2-yl)oxy)-4-chlorophenyl)pyrimidin-2-yl)amino)-3-(2,2,2-trifluoroethoxy)-1H-pyrazol-1-yl)-2-methylpropan-1-ol]: the pIC50 under setting [2] is over 8.00.

Compound `CCC(=O)c1nn(C2CC3(C2)CN(C2CCOCC2)C3)cc1Nc1ncc(-c2ccc(Cl)c(O[C@@H](C)Cn3cnnn3)c2)cn1` [Example 958, (S)-1-(4-((5-(3-((1-(1H-tetrazol-1-yl)propan-2-yl)oxy)-4-chlorophenyl)pyrimidin-2-yl)amino)-1-(2-(tetrahydro-2H-pyran-4-yl)-2-azaspiro[3.3]heptan-6-yl)-1H-pyrazol-3-yl)propan-1-one] showed a pIC50 under setting [3] of over 8.00.

For `C[C@@H](Cn1cnnn1)Oc1cc(-c2cnc(Nc3cn([C@H]4CC[C@@H](N5CC(C)(O)C5)CC4)nc3C(F)(F)F)nc2)ccc1Cl` [Example 803, 1-(cis-4-(4-((5-(3-(((S)-1-(1H-tetrazol-1-yl)propan-2-yl)oxy)-4-chlorophenyl)pyrimidin-2-yl)amino)-3-(trifluoromethyl)-1H-pyrazol-1-yl)cyclohexyl)-3-methylazetidin-3-ol], under setting [2], the pIC50 is over 8.00.

`C[C@@H](Cn1cnnn1)Oc1cc(-c2cnc(Nc3cn(Cc4nc5ccccc5c(=O)[nH]4)nc3C(F)(F)F)nc2)ccc1Cl` [Example 741, (S)-2-((4-((5-(3-((1-(1H-tetrazol-1-yl)propan-2-yl)oxy)-4-chlorophenyl)pyrimidin-2-yl)amino)-3-(trifluoromethyl)-1H-pyrazol-1-yl)methyl)quinazolin-4(3H)-one] had a pIC50 under setting [2] of 7.00 to 8.00.

`CCn1cc(Nc2ncc(-c3ccc(Cl)c(O[C@@H](C)Cn4cnnn4)c3)cn2)c(-c2ccccc2)n1` [Example 643, (S)-5-(3-((1-(1H-tetrazol-1-yl)propan-2-yl)oxy)-4-chlorophenyl)-N-(1-ethyl-3-phenyl-1H-pyrazol-4-yl)pyrimidin-2-amine] gave a pIC50 under setting [1] of 7.00 to 8.00.

For `C[C@@H](Cn1cnnn1)Oc1cc(-c2cnc(Nc3cn(C4CCC(=O)CC4)nc3C(F)(F)F)nc2)ccc1Cl` [Example 680, (S)-4-(4-((5-(3-((1-(1H-tetrazol-1-yl)propan-2-yl)oxy)-4-chlorophenyl)pyrimidin-2-yl)amino)-3-(trifluoromethyl)-1H-pyrazol-1-yl)cyclohexan-1-one], the pIC50 under setting [1] is 7.00 to 8.00.

Under setting [3], `CC(Cn1cnnn1)Oc1cc(-c2cnc(Nc3cn(CC4(O)CCC(N5CCOCC5)CC4)nc3OCC(F)(F)F)nc2)ccc1Cl` [Example 911, trans-1-((4-((5-(3-(((S)-1-(1H-tetrazol-1-yl)propan-2-yl)oxy)-4-chlorophenyl)pyrimidin-2-yl)amino)-3-(2,2,2-trifluoroethoxy)-1H-pyrazol-1-yl)methyl)-4-morpholinocyclohexan-1-ol] showed a pIC50 of over 8.00.

For `C[C@@H](Cn1cnnn1)Oc1cc(-c2cnc(Nc3cn([C@H]4C[C@H](NC(=O)OC(C)(C)C)C4)nc3OCC(F)(F)F)nc2)ccc1Cl` [Example 940, tert-butyl (trans-3-(4-((5-(3-(((S)-1-(1H-tetrazol-1-yl)propan-2-yl)oxy)-4-chlorophenyl)pyrimidin-2-yl)amino)-3-(2,2,2-trifluoroethoxy)-1H-pyrazol-1-yl)cyclobutyl)carbamate], the pIC50 under setting [3] was 7.00 to 8.00.

On to `COc1cnc(N2CCC(N3CCOCC3)CC2)cc1Nc1ncc(-c2ccc(Cl)c(O[C@@H](C)Cn3cnnn3)c2)cn1` [Example 456, (S)-5-(3-((1-(1H-tetrazol-1-yl)propan-2-yl)oxy)-4-chlorophenyl)-N-(5-methoxy-2-(4-morpholinopiperidin-1-yl)pyridin-4-yl)pyrimidin-2-amine], for which, under setting [4], the pIC50 is over 8.00.

`[2H]C1(N2CC3(CC(n4cc(Nc5ncc(-c6ccc(Cl)c(O[C@@H](C)Cn7cnnn7)c6)cn5)c(OCC(F)(F)F)n4)C3)C2)CCOCC1` [Example 944, 5-(4-chloro-3-{[(2S)-1-(1H-tetrazol-1-yl)propan-2-yl]oxy}phenyl)-N-(1-{2-[(4-^2H)tetrahydro-2H-pyran-4-yl]-2-azaspiro[3.3]heptan-6-yl}-3-(2,2,2-trifluoroethoxy)-1H-pyrazol-4-yl)pyrimidin-2-amine] gave a pIC50 under setting [3] of over 8.00.

As for `COc1ccc(C(=O)O)cc1Nc1ncc(-c2ccc(Cl)c(O[C@@H](C)Cn3cnnn3)c2)cn1` [Example 540, (S)-3-((5-(3-((1-(1H-tetrazol-1-yl)propan-2-yl)oxy)-4-chlorophenyl)pyrimidin-2-yl)amino)-4-methoxybenzoic acid], the pIC50 under setting [4] was at most 7.00.

`C[C@@H](Cn1cnnn1)Oc1cc(-c2cnc(Nc3cn(CC4(O)CCNCC4)nc3C(F)(F)F)nc2)ccc1Cl` [Example 882, (S)-4-((4-((5-(3-((1-(1H-tetrazol-1-yl)propan-2-yl)oxy)-4-chlorophenyl)pyrimidin-2-yl)amino)-3-(trifluoromethyl)-1H-pyrazol-1-yl)methyl)piperidin-4-ol] gave a pIC50 under setting [3] of over 8.00.

Compound `C[C@@H](Cn1cnnn1)Oc1cc(-c2cnc(Nc3cn([C@@H]4CCN(C5CCOCC5)C[C@H]4O)nc3C(F)(F)F)nc2)ccc1Cl` (mixture of isomers) [Example 897, trans-4-(4-((5-(3-(((S)-1-(1H-tetrazol-1-yl)propan-2-yl)oxy)-4-chlorophenyl)pyrimidin-2-yl)amino)-3-(trifluoromethyl)-1H-pyrazol-1-yl)-1-(tetrahydro-2H-pyran-4-yl)piperidin-3-ol] showed a pIC50 under setting [3] of over 8.00.

Under setting [4], `COc1ccc(CN2CCOCC2)cc1Nc1ncc(-c2ccc(Cl)c(O[C@@H](C)Cn3cnnn3)c2)cn1` [Example 448, (S)-5-(3-((1-(1H-tetrazol-1-yl)propan-2-yl)oxy)-4-chlorophenyl)-N-(2-methoxy-5-(morpholinomethyl)phenyl)pyrimidin-2-amine] gave a pIC50 of 7.00 to 8.00.

As for `COc1ccc(C(=O)N2CCCNCC2)cc1Nc1ncc(-c2ccc(Cl)c(O[C@@H](C)Cn3cnnn3)c2)cn1` [Example 593, (S)-(3-((5-(3-((1-(1H-tetrazol-1-yl)propan-2-yl)oxy)-4-chlorophenyl)pyrimidin-2-yl)amino)-4-methoxyphenyl) (1,4-diazepan-1-yl)methanone], the pIC50 under setting [1] was over 8.00.

`CC(C)n1ccc(Nc2ncc(-c3ccc(Cl)c(O[C@@H](C)Cn4cnnn4)c3)cn2)n1` [Example 723, (S)-5-(3-((1-(1H-tetrazol-1-yl)propan-2-yl)oxy)-4-chlorophenyl)-N-(1-isopropyl-1H-pyrazol-3-yl)pyrimidin-2-amine] showed a pIC50 under setting [1] of 7.00 to 8.00.

Regarding `COc1ccc(N2C[C@@H](C)N[C@@H](C)C2)cc1Nc1ncc(-c2ccc(Cl)c(O[C@@H](C)Cn3cnnn3)c2)cn1` [Example 612, 5-(3-(((S)-1-(1H-tetrazol-1-yl)propan-2-yl)oxy)-4-chlorophenyl)-N-(5-(cis-3,5-dimethylpiperazin-1-yl)-2-methoxyphenyl)pyrimidin-2-amine], under setting [1], the pIC50 was over 8.00.

On to `CC(=O)N1CCC(n2cc(Nc3ncc(-c4ccc(Cl)c(O[C@@H](C)Cn5cnnn5)c4)cn3)c(C(F)(F)F)n2)CC1` [Example 488, (S)-1-(4-(4-((5-(3-((1-(1H-tetrazol-1-yl)propan-2-yl)oxy)-4-chlorophenyl)pyrimidin-2-yl)amino)-3-(trifluoromethyl)-1H-pyrazol-1-yl)piperidin-1-yl)ethan-1-one], for which, under setting [4], the pIC50 is over 8.00.

Compound `C[C@@H](Cn1cnnn1)Oc1cc(-c2cnc(Nc3cn(CC(C)(C)O)nc3C(F)(F)F)nc2)ccc1Cl` [Example 847, (S)-1-(4-((5-(3-((1-(1H-tetrazol-1-yl)propan-2-yl)oxy)-4-chlorophenyl)pyrimidin-2-yl)amino)-3-(trifluoromethyl)-1H-pyrazol-1-yl)-2-methylpropan-2-ol] had a pIC50 under setting [2] of over 8.00.
